One data set deals with T1, human CB2 receptor (Homo sapiens, UniProt P34972).
T1 construct: expressed in transfected cells; host or cells: human embryonic kidney (HEK) cells, Semliki Forest Virus system, membrane preparation
Description: CB2 receptor affinity ([3H]-CP-55,940 displacement). The format is binding. To be noted: HEK cell membranes, radioligand [3H]-CP-55,940. The protocol: The affinity of the compounds of the invention for cannabinoid CB2 receptors was determined using membrane preparations of human embryonic kidney (HEK) cells in which the human CB2 receptor is transiently transfected using a Semliki Forest Virus system in conjunction with [^3H]-CP-55,940 as radioligand. After incubation of freshly prepared cell membrane preparation with the [^3H]-ligand, with or without addition of compounds of the invention, separation of bound and free ligand was performed by filtration over glass fiber filters. Radioactivity on the filter was measured by scintillation counting.
(§1) The ability of the compounds to displace the radioligand [^3H]-CP-55,940 was measured at a concentration of 10 μM and values provided as [% inhibition @ 10 μM] both for the CB 1 and CB2 receptor assay, The lower % inhibition is, the lower the likelihood of side effects based on CB1 or CB2 receptor inhibition is.

A further data set deals with ABCA1 protein. Description: Detection of upregulation of ABCA1 protein in cells (ApoA-I binding, high content image analysis). The format is cell-based. The conditions noted are these: THP-1 macrophage cells; for % increase of ABCA1 at 3 μM: compound at 3 μM, 24 hrs; for EC50: ABCA1 protein detection assay. The protocol: The ability of compounds of the invention to increase the level of ABCA1 protein is determined in replicate cultures of THP-1 macrophage cells in 96-well microplates. Cells are plated at an initial density of 100,000 cells/well in 100 μl medium and differentiated to adherent macrophages with the addition of PMA (100 nM) for 68 hrs in 10% fetal bovine serum, 3 μl/L of b-mercaptoethanol, RPMI-1640 medium. Then, cells are incubated with RPMI-1640 medium containing 1% FCS, 25 μg/ml acetylated LDL, for 24 hours at 37°. Following incubation with acetylated LDL, cells are washed twice with 50 μl PBS and incubated with 100 μl of RPMI-1640 medium containing the compound of interest solubilized in DMSO for an additional 24 hrs. The final DMSO concentration in presence of cells is maintained at 0.5%. ApoA-I binding assay using High Content Image Analysis is initiated by replacing with fresh medium, RPMI without Phenol Red, 0.2% BSA containing AlexaFluor®647 labeled ApoA-I for 2 h/37° C./5% CO2. Then, cells are fixed with 4% Formaldehyde in PBS (15 min, RT). Following Nuclei are stained with Hoechst solution (3 μM PBS) and Cytoplasm with Cell Mask Blue (2 μg/ml PBS), 15 min, RT. Finally the stained cells are fixed with a second round of formaldehyde treatment. Fixed stained cells are washed and kept in PBS at 4° C. and can be read immediately until one month after preparation.
The Alexa Fluor 647-labeled Apolipoprotein A-I (20 nM) was prepared as follows: Human recombinant Apolipoprotein A-I (ApoA-I) was exchanged to a buffer of 0.02 M NaHCO3 at pH 8.2 on an NAP desalting column (GE Healthcare) and brought to a concentration to 40 μM (1.13 mg/ml) by adjustment with the same buffer. The ApoA-I was fluorescently labeled by incubation with Alexa Fluor carboxylic acid succimidyl ester (Alexa Fluor 647, Invitrogen A-20006) at a 2:1 molar ratio (Alexa to ApoA-I) for 1 h under shaking at RT). The remaining unconjugated label was removed by buffer exchange to 0.02M NaHCO3 at pH 8.2.
Imaging and data collection were performed on an OPERA confocal microplate imaging reader using a 20× water immersion objective and UV360 or 405 laser to identify the cell nuclei and a 635 laser to identify the fluorescent ApoA-I. Eight fields of view are captured per well. Image capture and analysis was performed with the Acapella software. Background fluorescence detected in control wells without ApoA-I was subtracted.
Using XLfit3 program (ID Business Solutions Ltd. UK), the model 205 for Dose Response One Site is used to calculate the EC50 values. […] Particularly, the compounds of the present invention have EC50 values in a range of 0.1 μM to 3 μM.

In a further data set the target is T2, human CB1 receptor (Homo sapiens, UniProt P21554).
T2 construct: expressed in transfected cells; host or cells: human embryonic kidney (HEK) cells, Semliki Forest Virus system, membrane preparation
The data set is described as follows: CB1 receptor affinity ([3H]-CP-55,940 displacement). The format is binding. To be noted: 10 μM, HEK cell membranes, radioligand [3H]-CP-55,940; read-out: CB1 receptor affinity [% inhibition @ 10 μM]. The protocol: The affinity of the compounds of the invention for cannabinoid receptors was determined using membrane preparations of human embryonic kidney (HEK) cells in which the human CB1 receptor is transiently transfected using a Semliki Forest Virus system in conjunction with [3H]-CP-55,940 as radioligand. After incubation of freshly prepared cell membrane preparation with the [^3H]-ligand, with or without addition of compounds of the invention, separation of bound and free ligand was performed by filtration over glass fiber filters. Radioactivity on the filter was measured by scintillation counting.
as §1

T2 sequence (P21554 whole entry): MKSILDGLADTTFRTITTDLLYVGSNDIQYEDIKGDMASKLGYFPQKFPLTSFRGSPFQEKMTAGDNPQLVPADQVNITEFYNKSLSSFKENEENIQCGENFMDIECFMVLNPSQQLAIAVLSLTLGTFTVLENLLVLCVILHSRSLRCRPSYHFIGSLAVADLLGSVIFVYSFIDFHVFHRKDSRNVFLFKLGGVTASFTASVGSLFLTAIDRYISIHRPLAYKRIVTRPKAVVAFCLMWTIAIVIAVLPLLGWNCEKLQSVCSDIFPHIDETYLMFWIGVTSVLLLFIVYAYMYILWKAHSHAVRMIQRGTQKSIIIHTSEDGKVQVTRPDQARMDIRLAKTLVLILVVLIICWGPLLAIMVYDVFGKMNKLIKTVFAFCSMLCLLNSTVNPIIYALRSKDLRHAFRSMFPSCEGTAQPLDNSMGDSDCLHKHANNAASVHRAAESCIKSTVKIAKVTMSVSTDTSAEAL
T1 sequence (P34972 whole entry): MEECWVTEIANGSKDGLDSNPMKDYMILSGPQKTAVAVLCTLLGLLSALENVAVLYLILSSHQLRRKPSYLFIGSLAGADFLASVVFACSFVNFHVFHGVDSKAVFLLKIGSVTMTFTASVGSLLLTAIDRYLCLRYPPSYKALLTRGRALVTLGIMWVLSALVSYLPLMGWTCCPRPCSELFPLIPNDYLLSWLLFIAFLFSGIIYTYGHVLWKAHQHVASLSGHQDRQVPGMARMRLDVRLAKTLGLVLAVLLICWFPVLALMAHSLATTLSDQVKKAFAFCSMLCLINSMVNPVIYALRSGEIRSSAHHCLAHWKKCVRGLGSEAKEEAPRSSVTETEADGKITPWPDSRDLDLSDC

As usually defined, the inhibition is the relative decrease from the control value, in per cent. One may read the melting point as the temperature of the solid-liquid transition. In the case of `CO/N=C(/CNC(=O)c1cnc(OCC(F)(F)F)c(-c2ccc(Cl)c(Cl)c2)c1)C(F)(F)F` [Example 15, 5-(3,4-Dichloro-phenyl)-6-(2,2,2-trifluoro-ethoxy)-N-{3,3,3-trifluoro-2-[(Z)-methoxyimino]-propyl}-nicotinamide], the melting point lay in the range of 124 to 126 °C. In addition, the inhibition at 10 µM at human CB2 receptor turned out to be 23.2%. The “% increase of ABCA1 at 3 μM” value with ABCA1 protein came out at 50.5% @ 3 μM. The inhibition at 10 µM at human CB1 receptor is 32%.
Broadly, the EC50 is the concentration that produces a half-maximal response. A high value points to a need for much substance. `CO/N=C1\CCCC[C@@H]1NC(=O)c1cc(-c2ccc(Cl)cc2)c(OCC2CC2)nn1` [Example 18, 5-(4-Chloro-phenyl)-6-cyclopropylmethoxy-pyridazine-3-carboxylic acid {(S)-2-[(E)-methoxyimino]-cyclohexyl}-amide]: on human CB2 receptor, the inhibition at 10 µM came out at 32.5%. In the data set with ABCA1 protein, the EC50 amounted to 4990 nM and the “% increase of ABCA1 at 3 μM” value was determined as 57.3% @ 3 μM. Moreover, on human CB1 receptor, the inhibition at 10 µM is 26.9%.
In the case of `CO/N=C(\CNC(=O)c1ncc(OCC2CC2)c(-c2ccc(Cl)cc2)n1)C1CC1` [Example 19, 4-(4-Chloro-phenyl)-5-cyclopropylmethoxy-pyrimidine-2-carboxylic acid {2-cyclopropyl-2-[(Z)-methoxyimino]-ethyl}-amide], the inhibition at 10 µM turned out to be 63.8% on human CB2 receptor and 28% at human CB1 receptor. Also, in the data set on ABCA1 protein, the “% increase of ABCA1 at 3 μM” value was determined as 84.2% @ 3 μM.
Turning to `CO/N=C(/CNC(=O)c1ncc(OCC2CC2)c(-c2ccc(Cl)cc2)n1)C1CC1` [Example 20, 4-(4-chloro-phenyl)-5-cyclopropylmethoxy-pyrimidine-2-carboxylic acid {2-cyclopropyl-2-[(E)-methoxyimino]-ethyl}-amide], the inhibition at 10 µM at human CB2 receptor came out at 71.7%; on human CB1 receptor, 28.8%. In addition, in the data set on ABCA1 protein, the “% increase of ABCA1 at 3 μM” value is listed as 87.03% @ 3 μM.
Regarding `CO/N=C(/CNC(=O)c1ccc(OCC(F)(F)F)c(-c2ccc(Cl)cc2)n1)C(F)(F)F` [Example 21, 6-(4-Chloro-phenyl)-5-(2,2,2-trifluoro-ethoxy)-pyridine-2-carboxylic acid {3,3,3-trifluoro-2-[(Z)-methoxyimino]-propyl}-amide], the inhibition at 10 µM at human CB2 receptor came out at 31%; on human CB1 receptor, 41%. For the same molecule, the “% increase of ABCA1 at 3 μM” value in the data set with ABCA1 protein is 50% @ 3 μM.
Take `O=C(NC/C(=N/OCC(F)(F)F)C1CC1)c1cnc(OCC(F)(F)F)c(-c2ccc(Cl)c(Cl)c2)c1` [Example 22, N-{2-Cyclopropyl-2-[(E/Z)-2,2,2-trifluoro-ethoxyimino]-ethyl}-5-(3,4-dichloro-phenyl)-6-(2,2,2-trifluoro-ethoxy)-nicotinamide]: the inhibition at 10 µM was 9% on human CB2 receptor and 36% at human CB1 receptor. Moreover, the “% increase of ABCA1 at 3 μM” value with ABCA1 protein is recorded as 74% @ 3 μM.
Regarding `CO/N=C(/CNC(=O)c1cc(-c2ccc(Cl)c(Cl)c2)c(OCC(F)(F)F)nn1)C1CC1` [Example 23, (E)-N-(2-cyclopropyl-2-(methoxyimino)ethyl)-5-(3,4-dichlorophenyl)-6-(2,2,2-trifluoroethoxy)pyridazine-3-carboxamide], the melting point lay within 147 to 150 °C. Also, the inhibition at 10 µM on human CB2 receptor worked out at 14%. In the data set on ABCA1 protein, a half-maximal effect (EC50) was put at 540 nM and the “% increase of ABCA1 at 3 μM” value is listed as 88% @ 3 μM. Besides, on human CB1 receptor, the inhibition at 10 µM was -2%.
`CO/N=C1\CCCC[C@@H]1NC(=O)c1cc(-c2ccc(Cl)c(Cl)c2)c(OCC(F)(F)F)nn1` [Example 24, 5-(3,4-Dichloro-phenyl)-6-(2,2,2-trifluoro-ethoxy)-pyridazine-3-carboxylic acid {(S)-2-[(E)-methoxyimino]-cyclohexyl}-amide] yielded a melting point of 106 to 109 °C. The inhibition at 10 µM on human CB2 receptor turned out to be 31%. Also, the “% increase of ABCA1 at 3 μM” value in the data set with ABCA1 protein stood at 85% @ 3 μM. Moreover, on human CB1 receptor, the inhibition at 10 µM stood at 22%.
On to `CO/N=C(/CNC(=O)c1cc(-c2ccc(Cl)cc2)c(O[C@@H](C)C(F)(F)F)nn1)C1CC1` [Example 25, (S,E)-5-(4-Chlorophenyl)-N-(2-cyclopropyl-2-(methoxyimino)ethyl)-6-(1,1,1-trifluoropropan-2-yloxy)pyridazine-3-carboxamide], for which the inhibition at 10 µM was 29% on human CB2 receptor and 39% at human CB1 receptor. In the data set on ABCA1 protein, the “% increase of ABCA1 at 3 μM” value is 61% @ 3 μM.
In the case of `CO/N=C(/CNC(=O)c1cnc(O[C@@H](C)C(F)(F)F)c(-c2ccc(Cl)cc2)n1)C1CC1` [Example 26, (S,E)-6-(4-Chlorophenyl)-N-(2-cyclopropyl-2-(methoxyimino)ethyl)-5-(1,1,1-trifluoropropan-2-yloxy)pyrazine-2-carboxamide], the melting point lay within 149 to 152 °C. On human CB2 receptor, the inhibition at 10 µM stood at 9%. In the data set with ABCA1 protein, the EC50 came to 1120 nM and the “% increase of ABCA1 at 3 μM” value was determined as 79% @ 3 μM. For the same molecule, the inhibition at 10 µM on human CB1 receptor worked out at 13%.
As for `CO/N=C1\CCCC[C@@H]1NC(=O)c1cnc(O[C@@H](C)C(F)(F)F)c(-c2ccc(Cl)cc2)n1` [Example 27, 6-(4-Chlorophenyl)-N-((S,E)-2-(methoxyimino)cyclohexyl)-5-((S)-1,1,1-trifluoropropan-2-yloxy)pyrazine-2-carboxamide], the melting point lay in the range of 120 to 123 °C. At human CB2 receptor, the inhibition at 10 µM turned out to be 21%. Also, the “% increase of ABCA1 at 3 μM” value with ABCA1 protein is 65% @ 3 μM. Further, the inhibition at 10 µM at human CB1 receptor is 21%.
Regarding `CO/N=C1\CCCC[C@@H]1NC(=O)c1ncc(O[C@@H](C)C(F)(F)F)c(-c2ccc(Cl)cc2)n1` [Example 28, 4-(4-Chlorophenyl)-N-((S,E)-2-(methoxyimino)cyclohexyl)-5-((S)-1,1,1-trifluoropropan-2-yloxy)pyrimidine-2-carboxamide], the melting point was in the range of 180 to 182 °C. The inhibition at 10 µM on human CB2 receptor was 18%. Besides, in the data set with ABCA1 protein, the midpoint of the response, the EC50, lay at 780 nM and the “% increase of ABCA1 at 3 μM” value is recorded as 86.5% @ 3 μM. Besides, the inhibition at 10 µM on human CB1 receptor turned out to be 34.4%.
For `CO/N=C1\CCCC[C@@H]1NC(=O)c1cc(-c2ccc(Cl)cc2)c(O[C@@H](C)C(F)(F)F)cn1` [Example 29, 4-(4-Chlorophenyl)-N-((S,E)-2-(methoxyimino)cyclohexyl)-5-((S)-1,1,1-trifluoropropan-2-yloxy)picolinamide], the melting point is 123 to 125 °C. On human CB2 receptor, the inhibition at 10 µM was determined as 33%. In the data set with ABCA1 protein, the “% increase of ABCA1 at 3 μM” value worked out at 53.4% @ 3 μM. Also, at human CB1 receptor, the inhibition at 10 µM turned out to be 35.5%.
For `CO/N=C(/CNC(=O)c1cc(-c2ccc(Cl)cc2)c(OCC(F)(F)F)cn1)C1CC1` [Example 32, (E)-4-(4-chlorophenyl)-N-(2-cyclopropyl-2-(methoxyimino)ethyl)-5-(2,2,2-trifluoroethoxy)picolinamide], the values for the inhibition at 10 µM at human CB2 receptor and on human CB1 receptor were 29% and 15%, respectively. Also, the “% increase of ABCA1 at 3 μM” value in the data set with ABCA1 protein is on record as 53% @ 3 μM.

The values above are taken from patent US8669254B2, “Pyridine, pyridazine, pyrimidine or pyrazine carboxamides as HDL-cholesterol raising agents” (Hoffman-La Roche Inc., priority 2010, dated 2014).
